Data on one compound can be found in US8586613B2, “Pyridinium and quinolinium derivatives” (Universidad de Granada, priority 2004, dated 2013).

For series [1], the target named is T1, choline kinase from Plasmodium falcifarum (Pf-ChoK) (Plasmodium falciparum, UniProt Q8IM71).
T1 construct: made in house; host or cells: E. coli
Description: Sensitivity of Plasmodium falcifarum choline kinase (expressed in E. coli). Type of series: biochemical. Conditions: read-out: IC50 (inhibition of Pf-ChoK). As for the experimental part: The sensitivity of choline kinase of the parasite Plasmodium falcifarum (Pf) was also tested with choline kinase inhibitors. Choline kinase from Pf was expressed in E. coli (FIG. 3) and tested for activity (data not shown). Optimal conditions were established and the IC50 determined.

For series [2], the system named is H460 (human NSCLC cells) xenograft. Description: Antitumor activity in lung xenografts (H460). In kind it is in vivo, Balb/c nude mice. As to the method: (§1) Six-week-old Balb/c nude mice (Charles River) were used. The research protocol was approved by the National Biotechnology Centre (CNB) Ethics Committee and animals were maintained in accordance to the Spanish Law guidelines (12 h light/dark cycle, and ad libitum access to food and autoclaved water). Mice were inoculated s.c. in both lower flanks with 1×10^6 of H460 (human NSCLC cells) cells resuspended in 100 μL of serum free RPMI (Invitrogen) media. H460 cells were passed at 80% to 90% confluence every 2 to 3 days in RPMI (Invitrogen) supplemented with 10% fetal bovine serum (FBS, Invitrogen), to ensure exponential growth before using in the in vivo experiments.
Mice developing measurable subcutaneous tumors (˜0.15-0.2 cm^3) within 2 weeks were randomized to either treated or control groups (treated only with the drug vehicle). Tumor growth was monitored by measuring their size two to three times per week. Tumors were measured in two dimensions with digital calipers and tumor volume was estimated using the formula of a rational ellipse (D×d^2)/2, where D is the length of the long diameter and d is the short one. […]
Body weight of mice was assessed once per week and tumor volumes between the untreated and treated groups were compared and analyzed using the non parametric Mann-Whitney test. […]

Series [3] relates to MCF10-A (non-transformed epithelial cells). Description: MTT cell viability, panel of cell lines. In kind it is cell-based. The settings on record: Non-tumorogenic, 72 h. As to the method: (§2) This effect can be observed in Table 1, where sensitivity to RSM932A of non-transformed MCF-10A epithelial cells is compared to 12 different human-tumor-derived cells from different tissues, including breast, lung, colon and pancreatic tumor cell lines.
(§3) The experimental conditions were as follows: cells were seeded at 10,000 cells per well into 96-well plates (BD, Falcon, Bioscience, San Jose, Calif., USA). Exponentially growing cells for 24 hours were exposed to different concentrations (quadruplicates for each concentration) of the compound for 72 hours. The colorimetric assay MTT (3-(4,5-dimethylthiazol-2-yl)-2,5-diphenyltetrazolium bromide was used to assess cell viability. The reaction correlates with absorbance read at 595 nm in a VersaMax Microplate Reader (Molecular Devices, Sunnyvale, Calif., USA). The IC50 (50% inhibitory concentration of a substance) is quantified by plotting the log OD (optical density) versus log drug concentration. IC50: Concentration of the compound that causes 50% growth inhibition with respect to control cells without drug.

The next series deals with HT-29 cells. Description: HT-29 cell proliferation assay (Crystal Violet). Conditions: six days of treatment. Type of series: cell-based, human. As to the method: The HT-29 cells were seeded in 24-well plates (35×10^3 cells/well) and were incubated for 24 hours. Then the cells were treated with different concentrations of ChoK inhibitors in the usual culture medium. Three days later, the wells were aspirated and both fresh medium and more amount of drug were added, and the cells were maintained for three more days. The quantification of the remaining cells in each well was carried out by means of the Crystal Violet method [Gillies, R. J., Didier, N., Denton, M. Anal. Biochem. 159, 109-113 (1986)], with some modifications [Hernández-Alcoceba, R., Saniger, L., Campos, J., Núñez, M. C., Khaless, F., Gallo, M. Á., Espinosa, A., Lacal, J. C. Oncogene, 15, 2289-2301 (1997)]. Briefly, the cells were washed with TD buffer and fixed with 1% glutaraldehyde for 15 minutes. After washing again with TD, the cell nuclei were coloured with 0.1% Crystal Violet for at least 30 minutes and washed three times with distilled water. The adsorbed colouring was resuspended in 10% acetic acid and the absorbance at 595 nm was determined in a spectrometer. […] This value determined by iterative curve adjustment. Two values are determined for each point of the curve, the experiment was repeated two or three times and the mean values were estimated. In the few cases in which the two values differed more than 50%, a third experiment was carried out to determine the real value. The IC50 value as a potency measurement is used to relate the biological activity of the compounds with their chemical structure.

The subject of series [4] is MDA.MB.231 (breast cancer cell line) xenograft. Description: Antitumor activity in breast xenografts (MDA.MB.231). Type of series: in vivo, Balb/c nude mice. As to the method: as §1, with “of MDA.MB.231 (breast cancer cell line)” for “of H460 (human NSCLC cells)”, “free DMEN” for “free RPMI”, “media. MDA.MB.231” for “media. H460”, “in DMEN” for “in RPMI”, “using them for” for “using in”
Mice developing measurable subcutaneous tumors (˜0.1 cm^3) within 3 to 4 weeks were randomized to either treated or control groups (treated only with the drug vehicle). Tumor growth was monitored by measuring their size two to three times per week. Tumors were measured in two dimensions with digital calipers and tumor volume was estimated using the formula of a rational ellipse (D×d^2)/2, where D is the length of the long diameter and d is the short one. […]
Body weight of mice was assessed once per week and tumor volumes of the untreated and treated groups were compared and analyzed using the non parametric Mann-Whitney test. […]

The test system of a further series is DLD-1. Description: MTT cell viability, panel of cell lines. Type of series: cell-based, human. The settings on record: DLD-1, Colon, 72 h. As to the method: as §2, §3
The next series deals with HCT-116. Description: MTT cell viability, panel of cell lines. In kind it is cell-based, human. The settings on record: HCT-116, Colon, 72 h. As to the method: as §2, §3
The subject of a further series is H510. Description: MTT cell viability, panel of cell lines. Type of series: cell-based, human. The settings on record: H510, Lung, 72 h. As to the method: as §2, §3
Another series has as its system H1299. Description: MTT cell viability, panel of cell lines. Type of series: cell-based, human. The settings on record: H1299, Lung, 72 h. As to the method:
as §2, §3

Another series concerns MDA.MB.231. Description: MTT cell viability, panel of cell lines. Type of series: cell-based, human. The settings on record: MDA.MB.231, Breast, 72 h. As to the method:
as §2, §3

The next series concerns T47D. Description: MTT cell viability, panel of cell lines. In kind it is cell-based, human. Conditions: Breast, 72 h. As to the method: as §2, §3
For the next series, the system named is HT-29. Description: MTT cell viability, panel of cell lines. In kind it is cell-based, human. Conditions: HT-29, Colon, 72 h. As for the experimental part: as §2, §3
The next series relates to SW620. Description: MTT cell viability, panel of cell lines. Type of series: cell-based, human. The settings on record: SW620, Colon, 72 h. As for the experimental part:
as §2, §3

A further series deals with SkBr-3. Description: MTT cell viability, panel of cell lines. Type of series: cell-based, human. Conditions: SkBr-3, Breast, 72 h. As to the method: as §2, §3
A further series deals with MDA.MB.468. Description: MTT cell viability, panel of cell lines. Type of series: cell-based, human. Conditions: MDA.MB.468, Breast, 72 h. As to the method: as §2, §3
Another series relates to Mia.PaCa.2. Description: MTT cell viability, panel of cell lines. Type of series: cell-based, human. The settings on record: Mia.PaCa.2, Pancreas, 72 h. As to the method:
as §2, §3

In a further series the test system is H460. Description: MTT cell viability, panel of cell lines. In kind it is cell-based, human. Conditions: H460, Lung, 72 h. As for the experimental part:
as §2, §3

T1 sequence (Q8IM71 entry or part of it): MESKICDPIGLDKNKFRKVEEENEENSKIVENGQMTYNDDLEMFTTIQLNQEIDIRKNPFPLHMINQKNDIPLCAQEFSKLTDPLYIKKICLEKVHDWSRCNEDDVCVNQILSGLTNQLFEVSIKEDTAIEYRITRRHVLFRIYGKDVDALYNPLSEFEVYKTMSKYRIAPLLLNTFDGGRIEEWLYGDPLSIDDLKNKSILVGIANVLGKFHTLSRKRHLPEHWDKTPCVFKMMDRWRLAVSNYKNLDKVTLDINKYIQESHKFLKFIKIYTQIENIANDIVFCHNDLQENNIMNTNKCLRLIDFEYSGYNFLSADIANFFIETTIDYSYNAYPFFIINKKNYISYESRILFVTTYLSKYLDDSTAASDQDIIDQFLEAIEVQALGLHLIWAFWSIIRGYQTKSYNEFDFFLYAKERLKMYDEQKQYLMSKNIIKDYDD

As for `CN(c1ccc(Cl)cc1)c1cc[n+](Cc2ccc(-c3ccc(C[n+]4ccc(N(C)c5ccc(Cl)cc5)c5ccccc54)cc3)cc2)c2ccccc12.[Br-].[Br-]` [Compound 7, 1,1′-(biphenyl-4,4′-diylmethylene)bis[4-(4-chloro-N-methylanilino)quinolinium]dibromide], the half-inhibitory concentration (IC50) (commonly the concentration that gives 50% inhibition) is 0.93 µM in [1]; 7.1 µM in series [3]; 1.2 µM with HT-29 cells; 2.1 µM in the series with DLD-1; 1.8 µM in the series with HCT-116; 1.4 µM in the series with H510. The IC50 is 1.9 µM in the series on H1299; 1.3 µM in the series with MDA.MB.231; 2.25 µM in the series on T47D; 1.7 µM in the series on HT-29; 2.1 µM in the series with SW620; 3.1 µM with SkBr-3. The IC50 amounted to 2.4 µM in the series on MDA.MB.468, 2.3 µM in the series with Mia.PaCa.2 and 1.9 µM with H460. Besides, the “Loss Weight” value came to 10.5% in series [2] (H460 xenograft mice, 1st day vs last day of treatment (23.2 g to 20.8 g)) and 7.5% in [4] (MDA.MB.231 xenograft mice, 1st day vs last day of treatment (24 g to 22.2 g)). Moreover, the “percentage of inhibition of tumor growth” value in series [2] (H460 xenograft, 6 mg/kg i.p., five days in a week plus a boost, after 22 days, relative to control mice) is given as 64.5%; in [4] (MDA.MB.231 xenograft, 5 mg/kg i.p., three days per week for three weeks, after 20 days, relative to control mice) it was 54.5%.
